Data published in patent US20230234962A1, “OXA-AZASPIRO DERIVATIVE, AND PREPARATION METHOD THEREFOR AND PHARMACEUTICAL USE THEREOF” (priority 2020, published 2023).
Read-outs that look alike come from different tables or passages of the source.

How the values were obtained:
Type in all cases: biochemical
PI3Kδ enzyme = PI3Kδ enzyme (Homo sapiens, UniProt O00329); assay: ADP-Glo kinase assay, inhibition of PI3Kδ enzyme
Experimental: (§1) In this experiment, an ADP-Glo™ kinase assay kit is used. A substrate is phosphorylated under the action of enzyme, and ADP is generated at the same time. An ADP-Glo Reagent is added to remove unreacted ATP in the reaction system, and the ADP generated by the reaction is detected by a kinase detection reagent. In the presence of a compound, the inhibition rate of the compound is calculated by measuring the signal value.
(§2) Test compounds were each subjected to 3-fold dilution from a starting concentration of 10000 nM to obtain 11 concentrations, and duplicate wells were set for the test. Gradient dilution to a corresponding 100-fold final concentration in a 384-well plate was performed to obtain solutions with 11 different concentrations. 50 nL of each solution was transferred to compound wells of a 384-well plate with Echo; negative control wells were added with 50 nL of DMSO. A kinase solution with a 2-fold final concentration was prepared using 1×kinase buffer. 2.5 μL of the kinase solution with a 2-fold final concentration was added to the compound wells; 2.5 μL of the 1× kinase buffer was added to the negative control wells. The mixture was centrifuged at 1000 rpm for 30 s, mixed well by shaking, and then incubated at room temperature for 10 min. A mixed solution of ATP and substrate P1P2 with a 2-fold final concentration was prepared using 1× kinase buffer. The reaction was initiated by adding 2.5 μL of the mixed solution of ATP and substrate with a 2-fold final concentration. The mixture in the 384-well plate was centrifuged at 1000 rpm for 30 s, mixed well by shaking, and then reacted at room temperature for 120 min. 5 μL of ADP-Glo reagent was added, and the mixture was centrifuged at 1000 rpm for 30 s, mixed well by shaking, and then incubated at room temperature for 40 min. 10 μL of kinase detection reagent was added, and the resulting mixture was centrifuged at 1000 rpm for 30 s, mixed well by shaking, and then incubated at room temperature for 30 min. The luminescence RLU was read with an Envision microplate reader.
(§3) IC50 values for the inhibitory activity of the compounds were calculated using Graphpad Prism software.

PI3Kα enzyme = PI3Kα enzyme (Homo sapiens, UniProt P42336); assay: ADP-Glo kinase assay, selectivity, PI3Kα enzyme; conditions: 11 concentrations from 10000 nM
Experimental: as §1, §2, §3

PI3Kβ enzyme = PI3Kβ enzyme (Homo sapiens, UniProt P42338); assay: ADP-Glo kinase assay, selectivity, PI3Kβ enzyme; conditions: 11 concentrations from 10000 nM
Experimental: as §1, §2, §3

PI3Kγ enzyme = PI3Kγ enzyme (Homo sapiens, UniProt P48736); assay: ADP-Glo kinase assay, selectivity, PI3Kγ enzyme; conditions: 11 concentrations from 10000 nM
Experimental: as §1, §2, §3

[1] = ADP-Glo, PIK3CD/PIK3R1, 11 concentrations from 10000 nM, read-out: PI3Kδ enzyme IC50

PI3Kδ enzyme, sequence (O00329 whole entry): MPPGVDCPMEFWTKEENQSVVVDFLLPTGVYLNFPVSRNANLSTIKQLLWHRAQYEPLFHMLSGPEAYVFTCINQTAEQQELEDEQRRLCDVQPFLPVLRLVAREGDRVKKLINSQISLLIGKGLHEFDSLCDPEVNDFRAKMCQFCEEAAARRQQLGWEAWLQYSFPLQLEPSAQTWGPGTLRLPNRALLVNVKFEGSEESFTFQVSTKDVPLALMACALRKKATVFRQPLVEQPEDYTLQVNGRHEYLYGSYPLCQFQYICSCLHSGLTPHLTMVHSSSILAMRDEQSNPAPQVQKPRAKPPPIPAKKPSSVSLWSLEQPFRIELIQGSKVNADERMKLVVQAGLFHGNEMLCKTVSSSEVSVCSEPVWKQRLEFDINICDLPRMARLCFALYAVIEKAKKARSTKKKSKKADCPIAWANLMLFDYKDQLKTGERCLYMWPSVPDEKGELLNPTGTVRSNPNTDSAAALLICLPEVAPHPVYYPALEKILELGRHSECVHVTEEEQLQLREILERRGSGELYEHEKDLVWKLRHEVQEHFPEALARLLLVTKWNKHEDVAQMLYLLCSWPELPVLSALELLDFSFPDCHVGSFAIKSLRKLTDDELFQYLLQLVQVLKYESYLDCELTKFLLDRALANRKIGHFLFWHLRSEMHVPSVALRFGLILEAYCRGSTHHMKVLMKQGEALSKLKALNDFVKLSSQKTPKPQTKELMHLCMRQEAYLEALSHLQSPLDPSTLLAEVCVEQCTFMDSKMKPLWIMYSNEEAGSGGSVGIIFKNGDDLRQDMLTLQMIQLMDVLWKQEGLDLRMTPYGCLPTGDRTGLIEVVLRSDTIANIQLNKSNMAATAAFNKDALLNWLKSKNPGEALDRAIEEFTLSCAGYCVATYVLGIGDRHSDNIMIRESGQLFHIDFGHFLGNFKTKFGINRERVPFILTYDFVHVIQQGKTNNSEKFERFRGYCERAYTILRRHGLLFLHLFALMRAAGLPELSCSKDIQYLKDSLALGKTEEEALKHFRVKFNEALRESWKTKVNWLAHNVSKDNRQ
PI3Kδ enzyme, sequence (P27986 whole entry partner): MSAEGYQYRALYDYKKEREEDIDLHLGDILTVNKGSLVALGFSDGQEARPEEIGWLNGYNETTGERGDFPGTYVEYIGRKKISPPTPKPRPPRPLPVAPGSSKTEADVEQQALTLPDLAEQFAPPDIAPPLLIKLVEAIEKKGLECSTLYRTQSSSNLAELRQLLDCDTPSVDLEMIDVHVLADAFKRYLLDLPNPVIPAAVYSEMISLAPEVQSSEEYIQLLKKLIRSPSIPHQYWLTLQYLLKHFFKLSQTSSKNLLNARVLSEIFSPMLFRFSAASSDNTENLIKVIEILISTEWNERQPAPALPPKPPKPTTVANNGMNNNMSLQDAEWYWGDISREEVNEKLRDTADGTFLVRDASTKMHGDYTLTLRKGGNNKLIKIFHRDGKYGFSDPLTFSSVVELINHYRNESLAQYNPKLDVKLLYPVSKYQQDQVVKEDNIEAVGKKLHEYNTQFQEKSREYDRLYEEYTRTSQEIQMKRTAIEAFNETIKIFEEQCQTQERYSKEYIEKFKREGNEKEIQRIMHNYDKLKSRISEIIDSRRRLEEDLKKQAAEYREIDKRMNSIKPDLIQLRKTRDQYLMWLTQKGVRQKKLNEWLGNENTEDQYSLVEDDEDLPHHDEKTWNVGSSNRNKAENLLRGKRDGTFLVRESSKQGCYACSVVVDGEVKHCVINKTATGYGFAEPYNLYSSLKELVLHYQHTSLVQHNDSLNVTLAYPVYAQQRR
PI3Kγ enzyme, sequence (P48736 whole entry): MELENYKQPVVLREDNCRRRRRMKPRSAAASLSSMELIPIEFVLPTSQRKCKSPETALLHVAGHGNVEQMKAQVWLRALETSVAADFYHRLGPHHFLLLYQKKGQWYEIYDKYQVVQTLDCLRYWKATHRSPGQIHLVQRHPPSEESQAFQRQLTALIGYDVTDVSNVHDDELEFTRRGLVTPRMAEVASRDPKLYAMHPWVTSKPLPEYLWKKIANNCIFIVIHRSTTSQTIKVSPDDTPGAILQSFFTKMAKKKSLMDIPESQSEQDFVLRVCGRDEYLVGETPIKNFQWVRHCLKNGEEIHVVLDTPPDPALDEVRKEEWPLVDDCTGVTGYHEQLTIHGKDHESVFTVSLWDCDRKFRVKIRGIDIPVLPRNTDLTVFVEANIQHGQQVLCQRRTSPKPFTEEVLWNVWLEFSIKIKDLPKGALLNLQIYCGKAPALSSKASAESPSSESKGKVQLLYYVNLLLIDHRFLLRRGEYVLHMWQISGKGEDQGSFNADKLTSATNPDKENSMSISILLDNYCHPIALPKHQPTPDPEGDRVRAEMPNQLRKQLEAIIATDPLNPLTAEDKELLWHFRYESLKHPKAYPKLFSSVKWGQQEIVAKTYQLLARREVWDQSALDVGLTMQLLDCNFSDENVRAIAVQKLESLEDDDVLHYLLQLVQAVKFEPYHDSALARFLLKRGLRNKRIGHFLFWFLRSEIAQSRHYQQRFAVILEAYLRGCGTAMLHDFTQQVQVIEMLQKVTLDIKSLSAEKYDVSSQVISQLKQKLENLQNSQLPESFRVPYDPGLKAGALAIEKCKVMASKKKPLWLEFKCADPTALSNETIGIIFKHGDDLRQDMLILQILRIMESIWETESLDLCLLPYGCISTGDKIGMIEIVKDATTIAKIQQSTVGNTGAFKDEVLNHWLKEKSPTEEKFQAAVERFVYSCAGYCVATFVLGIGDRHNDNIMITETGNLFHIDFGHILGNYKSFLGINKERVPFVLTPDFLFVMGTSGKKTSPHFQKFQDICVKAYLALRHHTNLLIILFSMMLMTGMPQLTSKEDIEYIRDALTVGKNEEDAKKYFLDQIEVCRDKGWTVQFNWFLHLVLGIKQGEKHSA
PI3Kα enzyme, sequence (P42336 whole entry): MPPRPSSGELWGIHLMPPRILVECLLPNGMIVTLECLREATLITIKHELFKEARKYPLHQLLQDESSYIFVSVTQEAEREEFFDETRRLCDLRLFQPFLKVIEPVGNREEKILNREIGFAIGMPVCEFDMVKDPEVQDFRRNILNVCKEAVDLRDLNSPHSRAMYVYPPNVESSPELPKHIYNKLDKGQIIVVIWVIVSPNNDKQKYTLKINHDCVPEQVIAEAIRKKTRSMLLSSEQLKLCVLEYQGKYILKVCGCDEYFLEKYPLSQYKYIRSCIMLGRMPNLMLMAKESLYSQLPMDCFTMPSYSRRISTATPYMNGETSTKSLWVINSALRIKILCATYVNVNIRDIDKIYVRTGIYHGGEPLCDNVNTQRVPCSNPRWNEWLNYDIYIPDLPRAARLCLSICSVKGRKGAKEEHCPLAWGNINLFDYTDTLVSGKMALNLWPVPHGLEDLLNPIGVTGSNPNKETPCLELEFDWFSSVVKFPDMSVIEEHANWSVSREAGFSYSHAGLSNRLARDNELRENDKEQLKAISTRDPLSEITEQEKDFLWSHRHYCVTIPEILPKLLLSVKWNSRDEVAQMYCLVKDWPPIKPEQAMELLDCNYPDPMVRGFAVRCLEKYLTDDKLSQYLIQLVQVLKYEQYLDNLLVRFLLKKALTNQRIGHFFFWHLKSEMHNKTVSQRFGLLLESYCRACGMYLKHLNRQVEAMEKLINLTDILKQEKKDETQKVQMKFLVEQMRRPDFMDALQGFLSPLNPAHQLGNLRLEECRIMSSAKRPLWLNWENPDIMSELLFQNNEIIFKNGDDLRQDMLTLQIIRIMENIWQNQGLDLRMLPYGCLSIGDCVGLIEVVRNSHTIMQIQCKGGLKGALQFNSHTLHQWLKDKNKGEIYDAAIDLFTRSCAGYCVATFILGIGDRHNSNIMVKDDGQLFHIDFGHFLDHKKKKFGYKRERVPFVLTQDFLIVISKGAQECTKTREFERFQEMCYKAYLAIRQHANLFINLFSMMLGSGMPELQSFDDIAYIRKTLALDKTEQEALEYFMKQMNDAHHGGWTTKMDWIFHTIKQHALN
PI3Kα enzyme, sequence (P27986 whole entry, further chain): as the sequence (P27986 whole entry partner) above
PI3Kβ enzyme, sequence (P27986 whole entry): as the sequence (P27986 whole entry partner) above
PI3Kβ enzyme, sequence (P42338 whole entry): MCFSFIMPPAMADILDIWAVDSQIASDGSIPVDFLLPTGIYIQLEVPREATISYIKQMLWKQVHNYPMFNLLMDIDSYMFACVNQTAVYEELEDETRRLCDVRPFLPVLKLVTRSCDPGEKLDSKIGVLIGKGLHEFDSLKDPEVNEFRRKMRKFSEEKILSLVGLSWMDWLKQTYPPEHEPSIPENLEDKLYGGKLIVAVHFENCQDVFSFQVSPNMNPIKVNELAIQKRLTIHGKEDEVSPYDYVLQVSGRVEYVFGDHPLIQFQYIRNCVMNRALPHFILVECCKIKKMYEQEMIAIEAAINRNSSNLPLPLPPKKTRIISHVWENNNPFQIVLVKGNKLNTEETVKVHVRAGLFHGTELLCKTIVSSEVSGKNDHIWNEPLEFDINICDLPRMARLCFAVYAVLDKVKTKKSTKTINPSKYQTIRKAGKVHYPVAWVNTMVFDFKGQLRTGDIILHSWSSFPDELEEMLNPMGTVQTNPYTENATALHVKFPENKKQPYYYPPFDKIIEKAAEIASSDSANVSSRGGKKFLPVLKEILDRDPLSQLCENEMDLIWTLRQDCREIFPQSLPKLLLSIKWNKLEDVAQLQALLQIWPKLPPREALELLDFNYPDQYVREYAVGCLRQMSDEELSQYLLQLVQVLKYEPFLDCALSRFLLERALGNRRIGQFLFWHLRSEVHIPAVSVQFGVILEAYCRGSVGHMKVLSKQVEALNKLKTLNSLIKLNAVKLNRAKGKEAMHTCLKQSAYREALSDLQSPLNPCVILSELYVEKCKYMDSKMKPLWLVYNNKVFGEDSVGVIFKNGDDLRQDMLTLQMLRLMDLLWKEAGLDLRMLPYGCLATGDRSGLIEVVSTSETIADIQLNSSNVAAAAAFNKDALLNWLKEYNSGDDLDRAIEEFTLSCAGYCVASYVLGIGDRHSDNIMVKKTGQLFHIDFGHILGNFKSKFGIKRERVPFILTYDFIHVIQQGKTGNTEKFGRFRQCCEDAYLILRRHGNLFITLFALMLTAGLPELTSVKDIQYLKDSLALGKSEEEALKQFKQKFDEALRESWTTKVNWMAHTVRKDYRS

Structure (SMILES)	IC50 (PI3Kδ enzyme; [1]) [nM]	IC50 (PI3Kδ enzyme) [nM]	IC50 (PI3Kα enzyme) [nM]	IC50 (PI3Kβ enzyme) [nM]	IC50 (PI3Kγ enzyme) [µM]
COc1ccc2c(c1)S(=O)(=O)Cc1c(C(=O)N3CCOC4(CC4)C3)nn(-c3ccc(CN4CCOCC4)cc3)c1-2 [Example 4, (7-methoxy-1-(4-(morpholinomethyl)phenyl)-5,5-dioxido-1,4-dihydrothiochromeno[4,3-c]pyrazol-3-yl)(4-oxa-7-azaspiro[2.5]octan-7-yl)methanone]	7.9	–	–	–	–
COc1cccc2c1-c1c(c(C(=O)N3CCOC4(CC4)C3)nn1-c1ccc(CN3CCOCC3)cc1)CS2(=O)=O [Example 3, (9-methoxy-1-(4-(morpholinomethyl)phenyl)-5,5-dioxido-1,4-dihydrothiochromeno[4,3-c]pyrazol-3-yl)(4-oxa-7-azaspiro[2.5]octan-7-yl)methanone]	5.6	–	–	–	–
O=C(c1nn(-c2ccc(CN3CCOCC3)cc2)c2c1CS(=O)(=O)c1c-2ccc(Cl)c1F)N1CCOC2(CC2)C1 [Example 11, (7-chloro-6-fluoro-1-(4-(morpholinomethyl)phenyl)-5,5-dioxido-1,4-dihydrothiochromeno[4,3-c]pyrazol-3-yl)(4-oxa-7-azaspiro[2.5]octan-7-yl)methanone]	–	10.5	441	736	8.92
O=C(c1nn(-c2ccc(CN3CCOCC3)cc2)c2c1CS(=O)(=O)c1c(Cl)cccc1-2)N1CCOC2(CC2)C1 [Example 2, (6-chloro-1-(4-(morpholinomethyl)phenyl)-5,5-dioxido-1,4-dihydrothiochromeno[4,3-c]pyrazol-3-yl)(4-oxa-7-azaspiro[2.5]octan-7-yl)methanone]	18.4	–	–	–	–
COc1cccc2c1S(=O)(=O)Cc1c(C(=O)N3CCOC4(CC4)C3)nn(-c3ccc(CN4CCOCC4)cc3)c1-2 [Example 5, (6-methoxy-1-(4-(morpholinomethyl)phenyl)-5,5-dioxido-1,4-dihydrothiochromeno[4,3-c]pyrazol-3-yl)(4-oxa-7-azaspiro[2.5]octan-7-yl)methanone]	–	19	2330	2790	> 10
O=C(c1nn(-c2ccc(CN3CCOCC3)cc2)c2c1CS(=O)(=O)c1c(F)cccc1-2)N1CCOCC12CC2 [Control Example 10, (6-fluoro-1-(4-(morpholinomethyl)phenyl)-5,5-dioxido-1,4-dihydrothiochromeno[4,3-c]pyrazol-3-yl)(7-oxa-4-azaspiro[2.5]octan-4-yl)methanone, reference compound]	–	> 10000	–	–	–
Cc1cccc2c1S(=O)(=O)Cc1c(C(=O)N3CCOC4(CC4)C3)nn(-c3ccc(CN4CCOCC4)cc3)c1-2 [Example 6, (6-methyl-1-(4-(morpholinomethyl)phenyl)-5,5-dioxido-1,4-dihydrothiochromeno[4,3-c]pyrazol-3-yl)(4-oxa-7-azaspiro[2.5]octan-7-yl)methanone]	–	68	2570	7060	> 10
O=C(c1nn(-c2ccc(CN3CCOCC3)cc2)c2c1CS(=O)(=O)c1c(F)cccc1-2)N1CCOC2(CC2)C1 [Example 1, (6-fluoro-1-(4-(morpholinomethyl)phenyl)-5,5-dioxido-1,4-dihydrothiochromeno[4,3-c]pyrazol-3-yl)(4-oxa-7-azaspiro[2.5]octan-7-yl)methanone]	–	13	468	1320	6.21
Cc1ccc2c(c1)S(=O)(=O)Cc1c(C(=O)N3CCOC4(CC4)C3)nn(-c3ccc(CN4CCOCC4)cc3)c1-2 [Example 9, (7-methyl-1-(4-(morpholinomethyl)phenyl)-5,5-dioxido-1,4-dihydrothiochromeno[4,3-c]pyrazol-3-yl)(4-oxa-7-azaspiro[2.5]octan-7-yl)methanone]	–	25	1760	1550	> 10
O=C(c1nn(-c2ccc(CN3CCOCC3)cc2)c2c1CS(=O)(=O)c1cc(Cl)ccc1-2)N1CCOC2(CC2)C1 [Example 7, (7-chloro-1-(4-(morpholinomethyl)phenyl)-5,5-dioxido-1,4-dihydrothiochromeno[4,3-c]pyrazol-3-yl)(4-oxa-7-azaspiro[2.5]octan-7-yl)methanone]	–	26.5	1520	1740	> 10
Cc1cccc2c1-c1c(c(C(=O)N3CCOC4(CC4)C3)nn1-c1ccc(CN3CCOCC3)cc1)CS2(=O)=O [Example 12, (9-methyl-1-(4-(morpholinomethyl)phenyl)-5,5-dioxido-1,4-dihydrothiochromeno[4,3-c]pyrazol-3-yl)(4-oxa-7-azaspiro[2.5]octan-7-yl)methanone]	5.8	–	–	–	–
